Measured values from patent publication US9259491B2, “Class of diazepine derivative chelating agents and complexes with paramagnetic metals thereof as MRI contrast agents” (BRACCO IMAGING S.P.A., priority 2012, dated 2016).

What was measured:
[1] = Millimolar relaxivity r1p from T1 measurements in water, HSA 4% and human plasma (0.47T/20 MHz, 25° C.); type: physicochemical
Procedure: (§1) For all the compounds, longitudinal relaxation times (T1) at 20 MHz and at 25° C. on a mq20 Minispec instrument (Bruker Biospin, Germany) were measured in water, human serum albumin at physiological concentration and human plasma. Millimolar relaxivity r1p was thus determined from T1 measurements using the following equation: R^i1obs=1/T^i,J1obs=r^i,j1p·[Gd^3+]+1/T^j1 wherein R^i1obs is the observed relaxation […] of the selected contrast agent, T1obs is the observed longitudinal relaxation time of the solution and the indexes i and j relate to the contrast agent and to the medium respectively.

[2] = Stability at 37° C. of diazepine complexes determined through r1p measurement in different media; type: physicochemical; details: 0.47T, 25° C.
Procedure: as §1
In its turn, this means that the present amphiphilic complexes can be administered and detected during MRI experiments allowing a clear and exhaustive analysis of the image over a suitable frame of time.

Compound	r1p ([1]; HSA 4%) [mM⁻¹ s⁻¹]	r1p ([1]; Human plasma) [mM⁻¹ s⁻¹]	r1p ([1]; Water) [mM⁻¹ s⁻¹]	r1p (stability at 37° C.) ([2]; Water, T0) [mM⁻¹ s⁻¹]	further results
CC(O)CN1CCN(CC(=O)[O-])CCN(CC(=O)[O-])CCN(CC(=O)[O-])CC1.[Gd+3] (stereo not drawn) [Gd-HP-DO3A, [10-(2-hydroxyprop-1-yl)-1,4,7,10-tetraazacyclododecane-1,4,7-triacetato(3-)]gadolinium, reference compound]	3.85	4.80	3.32	–	–
C[NH2+]C[C@H](O)[C@@H](O)[C@H](O)[C@H](O)CO.O=C([O-])CN1CCN(CC(=O)[O-])CCN(CC(=O)[O-])CCN(CC(=O)[O-])CC1.[Gd+3] [Gd-DOTA, [[1,4,7,10-tetraazacyclododecane-1,4,7,10-tetraacetato(4-)]gadolinate(1-)] meglumine, reference compound]	4.11	4.51	3.61	–	–
C[NH2+]C[C@H](O)[C@@H](O)[C@H](O)[C@H](O)CO.C[NH2+]C[C@H](O)[C@@H](O)[C@H](O)[C@H](O)CO.O=C([O-])CN(CCN(CC(=O)[O-])CC(=O)[O-])CCN(CC(=O)[O-])C(COCc1ccccc1)C(=O)[O-].[Gd+3] (stereo not drawn) [Gd-BOPTA, [[4-(carboxy)-5,8,11-tris(carboxymethyl)-1-phenyl-2-oxa-5,8,11-triazatridecan-13-oato(5-)]gadolinate(2-)]dimeglumine, reference compound]	8.9	8.7	4.6	–	–
CCCCCCCCCCCC(=O)OC[C@H](COP(=O)(O)OCCNC(=O)CCCCC1(N(CC(=O)[O-])CC(=O)[O-])CN(CC(=O)[O-])CCN(CC(=O)[O-])C1)OC(=O)CCCCCCCCCCC.[Gd+3].[Na+] [Compound 9b]	32.0	32.5	16.7	16.7	r1p (stability at 37° C.) ([2]; Human plasma, 1 h): 30.9 mM⁻¹ s⁻¹; r1p (stability at 37° C.) ([2]; Human plasma, 4 h): 28.3 mM⁻¹ s⁻¹; r1p (stability at 37° C.) ([2]; Human plasma, T0): 32.5 mM⁻¹ s⁻¹; r1p (stability at 37° C.) ([2]; Water, 1 h): 15.9 mM⁻¹ s⁻¹; r1p (stability at 37° C.) ([2]; Water, 4 h): 15.5 mM⁻¹ s⁻¹
O=C([O-])CN1CCN(CC(=O)[O-])CCN([C@H](CO)[C@H](O)CO)CCN(CC(=O)[O-])CC1.[Gd+3] [Gd-BT-DO3A, reference compound]	4.31	5.76	3.75	–	–

Second part, led by results:

r1p ([1]; HSA 4%) [mM⁻¹ s⁻¹]	r1p ([1]; Human plasma) [mM⁻¹ s⁻¹]	r1p ([1]; Water) [mM⁻¹ s⁻¹]	r1p (stability at 37° C.) ([2]; Water, T0) [mM⁻¹ s⁻¹]	Compound	further results
45.8	41.1	23.9	23.9	CCCCCCCCCCN(CCCCCCCCCC)C(=O)C1CCC(C2(N(CC(=O)[O-])CC(=O)[O-])CN(CC(=O)[O-])CCN(CC(=O)[O-])C2)CC1.[Gd+3].[Na+] [Compound 25a, [[6-[Bis(carboxymethyl)amino]-6-[(1R,4R)-4-[(didecylamino)-carbonyl]-cyclohexane-1-yl]tetrahydro-1H-1,4-diazepine-1,4(5H)diacetate(4-)]gadolinate(1-)]sodium]	r1p (stability at 37° C.) ([2]; HSA 4%, 5 h): 40.4 mM⁻¹ s⁻¹; r1p (stability at 37° C.) ([2]; HSA 4%, T0): 45.8 mM⁻¹ s⁻¹; r1p (stability at 37° C.) ([2]; Water, 5 h): 23.4 mM⁻¹ s⁻¹
46.7	45.2	23.5	23.5	CCCCCCCCCCN(CCCCCCCCCC)C(=O)CCCCC1(N(CC(=O)[O-])CC(=O)[O-])CN(CC(=O)[O-])CCN(CC(=O)[O-])C1.[Gd+3].[Na+] [Compound 12d, [[6-[Bis[(carboxy)methyl]amino]-6-[5-(didecylamino)-5-oxopent-1-yl]-tetrahydro-1H-1,4-diazepine-1,4(5H)-diacetate(4-)]gadolinate(1-)]sodium]	r1p (stability at 37° C.) ([2]; HSA 4%, 5 h): 40.9 mM⁻¹ s⁻¹; r1p (stability at 37° C.) ([2]; HSA 4%, T0): 46.7 mM⁻¹ s⁻¹; r1p (stability at 37° C.) ([2]; Human plasma, 2 h): 39.2 mM⁻¹ s⁻¹; r1p (stability at 37° C.) ([2]; Human plasma, 5 h): 34.7 mM⁻¹ s⁻¹; r1p (stability at 37° C.) ([2]; Human plasma, T0): 45.2 mM⁻¹ s⁻¹; r1p (stability at 37° C.) ([2]; Water, 2 h): 20.4 mM⁻¹ s⁻¹; r1p (stability at 37° C.) ([2]; Water, 5 h): 15.8 mM⁻¹ s⁻¹
41.0	39.1	14.6	–	CCCCCCCCN(CCCCCCCC)C(=O)C1CCC(C2(N(CC(=O)[O-])CC(=O)[O-])CN(CC(=O)[O-])CCN(CC(=O)[O-])C2)CC1.[Gd+3].[Na+] [Compound 25b, [6-[Bis(carboxymethyl)amino]-6-[(1R,4R)-4-[(dioctylamino)-carbonyl]-cyclohexane-1-yl]tetrahydro-1H-1,4-diazepine-1,4(5H)diacetate(4-)]gadolinate(1-)]sodium]	–
31.5	33.7	13.0	–	CCCCCCN(CCCCCC)C(=O)CCCCC1(N(CC(=O)[O-])CC(=O)[O-])CN(CC(=O)[O-])CCN(CC(=O)[O-])C1.[Gd+3].[Na+] [Compound 12b, [[6-[Bis[(carboxy)methyl]amino]-6-[5-(dihexylamino)-5-oxopent-1-yl]-tetrahydro-1H-1,4-diazepine-1,4(5H)-diacetate(4-)]gadolinate(1-)]sodium]	–
40.4	36.2	33.4	33.4	CCCCCCCCCCCCN(CCCCCCCCCCCC)C(=O)CCCCC1(N(CC(=O)[O-])CC(=O)[O-])CN(CC(=O)[O-])CCN(CC(=O)[O-])C1.[Gd+3].[Na+] [Compound 12e, [[6-[Bis[(carboxy)methyl]amino]-6-[5-(didodecylamino)-5-oxopent-1-yl]-tetrahydro-1H-1,4-diazepine-1,4(5H)-diacetate(4-)]gadolinate(1-)]sodium]	r1p (stability at 37° C.) ([2]; Human plasma, 2 h): 35.2 mM⁻¹ s⁻¹; r1p (stability at 37° C.) ([2]; Human plasma, 4 h): 32.3 mM⁻¹ s⁻¹; r1p (stability at 37° C.) ([2]; Human plasma, T0): 36.2 mM⁻¹ s⁻¹; r1p (stability at 37° C.) ([2]; Water, 2 h): 31.3 mM⁻¹ s⁻¹; r1p (stability at 37° C.) ([2]; Water, 4 h): 30.4 mM⁻¹ s⁻¹
54.2	50.2	13.3	–	CCCCCCCCN(CCCCCCCC)C(=O)CCCCC1(N(CC(=O)[O-])CC(=O)[O-])CN(CC(=O)[O-])CCN(CC(=O)[O-])C1.[Gd+3].[Na+] [Compound 12c, [[6-[Bis[(carboxy)methyl]amino]-6-[5-(dioctylamino)-5-oxopent-1-yl]-tetrahydro-1H-1,4-diazepine-1,4(5H)-diacetate(4-)]gadolinate(1-)]sodium]	–
40.2	43.0	14.7	–	CCCCCCCCCC(=O)OC[C@H](COP(=O)([O-])OCCNC(=O)C1CCC(C2(N(CC(=O)[O-])CC(=O)[O-])CN(CC(=O)[O-])CCN(CC(=O)[O-])C2)CC1)OC(=O)CCCCCCCCC.[Gd+3].[Na+].[Na+] (stereo partly drawn) [Compound 25c, [6-[-[Bis(carboxymethyl)amino]-6-[(1R,4R)-4-[[[(7R)-4-hydroxy-4-oxido-10-oxo-7-[(1-oxodecyl)oxy]-3,5,9-trioxa-4-phosphanonadec-1-yl]amino]-carbonyl]-cyclohexane-1-yl]tetrahydro-1H-1,4-diazepine-1,4(5H)-diacetate(5)]gadolinate(2-)]disodium]	–
